These results are taken from patent publication US20260345561A1, “METHODS AND COMPOSITIONS FOR USE IN TREATING AUTOSOMAL RECESSIVE POLYCYSTIC KIDNEY DISEASE (ARPKD)” (The General Hospital Corporation, priority 2022, published 2026).

The test system of series [1] is PKHD1−/− organoids. Put plainly: CDH1+ distal tubular enlargement / cyst formation by 3D imaging of cleared whole organoids-on-a-chip. It is filed as cell-based, human. The settings on record: for cyst suppression: Z-DEVD-FMK 1 μM, Quercetagetin 10 μM, rhCXCL16 1 ng/ml (FIG. 3D, E). The method, then:
(§1) H9 (WiCell) human ES cells, H9-derived PKHD1 mutants, and ARPKD patient-derived iPSCs (68) were maintained on hESC-qualified Geltrex (Thermo Fisher Scientific) coated plates using StemFit® Basic02 (Ajinomoto Co., Inc.) supplemented with 10 ng/ml of FGF2 (Peprotech), as previously reported (69).
Heterozygotic (PKHD1+/−) and compound homozygotic (PKHD1−/−) mutant lines were generated using methodology previously outlined (70), which generated clones of isogenic progeny via clonal expansion from single cells. PX459 plasmid encoding a Streptococcus pyogenes Cas9 and guide RNA (sgRNA) targeting the third exon of PKHD1 (5′-[…]-3′; SEQ ID NO:1) was transfected into H9 hESCs to generate the heterozygotic mutant line, which then served as the parental line to generate the compound homozygotic mutant. Transfected cells were selected by transient puromycin treatment. CRISPR/Cas9-induced mutations of individual clones were identified by deep sequencing.
The organoids were seeded onto the chip devices on day 14 of their differentiation and cultured on chip by flowing cell culture medium composed of ARMPI with GlutaMAX, 1% Antibiotic/Antimycotic solution (Gibco), and 1.5% heat-inactivated fetal bovine serum (Gibco). All cell culture medium was pre-equilibrated to the cell culture incubator environment for at least 2 hr before chip assembly and seeding. The kidney organoids-on-a-chip was then held in a cell culture incubator for 30 min under static conditions, before connecting the inlet perfusion tubing to an IPC-N peristaltic pump (Ismatech) and perfusing the cell culture media at 42.7 μl/min overnight in the incubator. The following day (day 15 of organoid differentiation), the sterile filter was removed from the perfusion line to avoid bubble formation at high perfusion speeds, and the perfusion speed was ramped up to 4.27 mL/min. Cell culture medium was changed in the reservoir every 2-3 days.
Full media exchanges were conducted every 2-3 days. Treatment of the kidney organoids-on-a-chip was started at day 16 of their differentiation until day 35.
The chip device was taken out of the incubator for fixation, and the lid was carefully removed in a sterile biosafety cabinet. The kidney organoids adherent on the surface of the ECM were rinsed with PBS, carefully overlayed with 4% PFA, and fixed for 45 min at RT. Post fixation, the samples were washed three times with 0.1% Triton-X (Sigma) for 30 min. Organoids were stained and cleared with ethyl cinnamate (Sigma), as described before (78). The following antibodies were used in these studies: anti-CDH1 (Abcam, ab11512), anti-CFTR (Sigma, HPA021939), anti-LTL (Vector lab, B-1325), anti-PODXL (R&D systems, AF1658), anti-K167 (Dako, m7248), Anti-pS6RP (Cell signaling, 2211S), anti-RAC1 (Developmental Studies Hybridoma Bank, CPTC-RAC1-2), anti-FOS (Abcam, ab190289). Samples were examined by a Zeiss TIRF/LSM 710 confocal microscopy or a Leica […] 8 confocal microscopy, and by using Imaris 3D software (Bitplane).
(§2) Data in all bar charts and dot plots are expressed as mean±s.d. Statistical analysis was done in GraphPad Prism 9, and statistical significance was attributed to values of P<0.05 as determined by one-way ANOVA with Tukey's multiple-comparisons test unless otherwise noted. Different significance levels (P values) are indicated in each figure with asterisks: *P<0.05, **P<0.01, ***P<0.001, and ****P<0.0001. […] FIG. 1F; n=74 LTL+ tubules with flow, n=66 LTL+ tubules in static culture, n=191 LTL+ tubules treated with forskolin, n=32 CDH1+ tubules with flow, n=27 CDH1+ tubules in static culture, and n=104 CDH1+ tubules treated with forskolin. FIG. 2C; n=16 tubules transfected with siControl, n=17 tubules transfected with siKIF3A.

Series [2] deals with RAC1. The settings on record: cited from earlier work.
The conditions of series [3]: cited from earlier work.
In series [4] the test system is DUSP1. Put plainly: qPCR for DUSP1 (FOS downstream gene). It is filed as cell-based, human. To be noted: PKHD1−/− and ARPKD patient-derived organoids, flow, T-5224 10 μM, day 16 to 23. As to the method: (§3) FIG. 2J; n=4 (perfusion), n=4 (rest). FIG. 2K; n=3. […] 3 independent experiments were performed for FIG. 3E. […] FIG. 4H; n=4 (control), n=4 (ARPKD). FIG. 4I; n=4 (control), n=4 (ARPKD).
In general terms: In qPCR the cycle at which signal appears reflects the starting amount.

The test system of series [5] is NPTX2. Put plainly: qPCR for NPTX2 (FOS downstream gene). To be noted: PKHD1−/− and ARPKD patient-derived organoids, flow, T-5224 10 μM, day 16 to 23. It is filed as cell-based, human. As to the method: as §3
Series [6] relates to PRDM1. Put plainly: qPCR for PRDM1 (FOS downstream gene). The settings on record: PKHD1−/− and ARPKD patient-derived organoids, flow, T-5224 10 μM, day 16 to 23. It is filed as cell-based, human. As to the method:
as §3

For series [7], the system named is PRDM1. Put plainly: Quantitative immunohistochemistry for PRDM1. It is filed as cell-based, human. The settings on record: PKHD1−/− organoids, T-5224 10 μM, day 23 (FIG. 5F). As to the method:
as §3

Series [8] has as its system FOS. To be noted: cited from earlier work.
For series [9] the following is noted: clinical trials for arthritis / humans (ref. 45); cited from earlier work.
The subject of series [10] is ARFIP2. To be noted: flow, R-Naproxen 20 μM. The method, then: (§4) Total RNA was isolated from kidney organoid samples using TRIzol (Invitrogen, #15596026). cDNA was synthesized from 500 ng of RNA using a High-capacity cDNA Reverse Transcription kit (Applied Biosystems, #4368814) according to the manufacturer's instructions. Real-time PCR was performed using iTaq SYBR green supermix (Bio-Rad, #1725124) and QuantStudio3 Real-time PCR systems. The expression of mRNA was assessed by evaluating threshold cycle (CT) values. The CT values and relative expression levels were normalized by ribosomal protein S18 (RPS18), and the relative amount of mRNA specific to each of the target genes was calculated (n=3 in each experiment).
as §2, with “siKIF3A. 8 organoids transfected with siControl, and 7 organoids transfected with siKIF3A from 2 independent chips were analyzed in FIG. 2C.” for “siKIF3A.”

Series [11] has as its system BAIAP2. To be noted: flow, R-Naproxen 20 μM. The method, then: as §4
as §2, with “siKIF3A. 8 organoids transfected with siControl, and 7 organoids transfected with siKIF3A from 2 independent chips were analyzed in FIG. 2C.” for “siKIF3A.”

The test system of series [12] is ARFIP2. To be noted: PKHD1−/− organoids, R-Naproxen 20 μM, day 23 (FIG. 5F).
Source text: as §2, with “siKIF3A. 8 organoids transfected with siControl, and 7 organoids transfected with siKIF3A from 2 independent chips were analyzed in FIG. 2C.” for “siKIF3A.”

Series [13] deals with COX. To be noted: cited from earlier work.
Series [14] has as its system ARPKD patient-derived organoids. Put plainly: Cyst formation on cAMP induction in static patient-derived organoids. It is filed as cell-based, human. The method, then:
as §1
Kidney organoids were cultured in static condition and treated with 20 μM of forskolin (Sigma, #F6886), a cAMP inducer, from day 14 to day 35.
as §3

The subject of series [15] is PKHD1−/− organoids. Put plainly: Cyst formation / tubular diameter on forskolin treatment in static culture. It is filed as cell-based, human.
Source text: as §2, with “siKIF3A. 8 organoids transfected with siControl, and 7 organoids transfected with siKIF3A from 2 independent chips were analyzed in FIG. 2C.” for “siKIF3A.”

In series [16] the test system is ARPKD patient-derived organoids. To be noted: prior ARPKD organoid model from patient-derived iPS cells, static culture (ref. 17); cited from earlier work.
[17] abbreviates: PKHD1−/− organoids-on-a-chip, day 16 to 35, flow, R-Naproxen 20 μM, R-Ketorolac 1 and 10 μM, T-5224 10 μM (FIG. 4B, C).
[18] abbreviates: PKHD1−/− organoids under flow, day 16 to 35, T-5224 10 μM, NSC23766 10 μM, 2-MeOE2 5 μM (FIG. 3D, E).
[19] abbreviates: ARPKD patient-derived organoids, day 16 to 23 (FIG. 14).
The mark [20] stands for this setting: PKHD1−/− (CRISPR-mutant) organoids, day 16 to 23 (FIG. 5E).
[21] abbreviates: PKHD1−/− organoids under flow, day 16 to 35.
[22] abbreviates: forskolin 20 μM, static (FIG. 1F right).

“Also recorded” adds a separate entry of the source. Read-outs that look alike come from different tables or passages of the source.

Take `O=C(c1ccccc1)c1ccc2n1CC[C@H]2C(=O)O` [R-Ketorolac]: the “CDH1+ tubular enlargement” value in series [1] (setting [17]) is “significant reductions”. Moreover, the “inhibitory effect against RAC1” value in series [2] was “inhibitory effect against RAC1”.

Regarding `COc1ccc2cc([C@H](C)C(=O)O)ccc2c1` [S-Naproxen], the cyst formation entry in series [1] (PKHD1−/− organoids cultured under flow, S-Naproxen 20 μM (FIG. 11)) is listed as “did not inhibit cyst formation”. The RAC1 inhibitory activity entry in [2] is given as “lacks RAC1 inhibitory activity”. Further, the anti-inflammatory effect result in series [3] was “has an anti-inflammatory effect”.

Consider `O=C(O)CCc1cc(C(=O)c2ccc(OC3CCCC3)cc2O)ccc1OCc1ccc2c(O)noc2c1` [T-5224, 3-{5-[4-(cyclopentyloxy)-2-hydroxybenzoyl]-2-[(3-hydroxy-1,2-benzisoxazol-6-yl)methoxy]phenyl}propionic acid], for which the figures for the “CDH1+ tubular enlargement” value in series [1] (setting [18]) and in [1] (setting [17]) were “significant reduction” and “significant reductions”, respectively. Moreover, the “DUSP1 expression (qPCR)” value in [4] is given as “reverse expression”. Besides, the “NPTX2 expression (qPCR)” value in series [5] was “reverse expression”. Also, the “PRDM1 expression (qPCR)” value in series [6] is on record as “reverse expression”. Further, in series [7], the “PRDM1 expression (immunohistochemistry), decreased by flow” value is recorded as “rescue”. Moreover, the FOS inhibition result in [8] was “selective FOS inhibitor; also recorded: specific FOS inhibitor”. Besides, the safety profile entry in series [9] is recorded as “favorable safety profile; also recorded: proven to be safe in humans”.

For the molecule `COc1ccc2cc([C@@H](C)C(=O)O)ccc2c1` [R-Naproxen], the “CDH1+ tubular enlargement” value in series [1] (setting [17]) was “significant reductions”. Further, the “cyst suppression (general statement)” value in series [1] (present data, R-Naproxen) is “cyst suppression”. Besides, the “ARFIP2 expression (qPCR)” value in [10] (setting [19]) and in series [10] (setting [20]) was “rescued” each time. In addition, the “BAIAP2 expression (qPCR)” value in [11] (setting [19]) and in series [11] (setting [20]) was “rescued” throughout. Moreover, the “ARFIP2 expression (immunohistochemistry), decreased by flow” value in [12] was “rescue”. The RAC1 inhibition result in series [2] is “enhanced RAC1 inhibition”. Moreover, in series [2], the “inhibitory effect against RAC1” value is “inhibitory effect against RAC1”. In series [13], the COX inhibition result was “limited COX inhibition”.

In the case of Z-DEVD-FMK, the cyst suppression result in series [1] (setting [21]) is “marginal effect”.

Turning to `CCN(CC)CCCC(C)Nc1nc(C)cc(Nc2ccc3nc(C)cc(N)c3c2)n1` (stereo not shown) [NSC23766], the “CDH1+ tubular enlargement” value in series [1] (setting [18]) is recorded as “significant reduction”.

In the case of `C=C[C@@]1(C)CC(=O)[C@]2(O)[C@@]3(C)[C@@H](O)CCC(C)(C)[C@@H]3[C@H](O)[C@H](OC(C)=O)[C@@]2(C)O1` [forskolin], the cyst formation entry in [14] (ARPKD patient-derived organoids, forskolin 5, 10, 20 μM (FIGS. 6A-G)) is listed as “form cysts”. Besides, the “cyst formation in LTL+ proximal tubules” value in series [14] (static organoids derived from ARPKD-patient iPSCs) is reported as “induced cyst formation”. For the same molecule, the cyst formation entry in series [15] (forskolin 20 μM (FIGS. 8A-H)) is listed as “form cysts”. For the same molecule, in series [15] (setting [22]), the “diameter in LTL+ CDH− (proximal) tubules” value was “increases” and the “diameter in LTL− CDH1+ (distal) tubules” value is given as “increases”. In series [16], the “cyst formation in CDH1+ distal nephrons” value is recorded as “rarely developed cysts” and the “cyst formation in LTL+ proximal tubules” value is on record as “formed cystic structures”.

On to `COc1cc2c(cc1O)CC[C@@H]1[C@@H]2CC[C@]2(C)[C@@H](O)CC[C@@H]12` [2-MeOE2, 2-Methoxyestradiol], for which the “CDH1+ tubular enlargement” value in [1] (setting [18]) was “significant reduction”.

In the case of `O=c1c(O)c(-c2ccc(O)c(O)c2)oc2cc(O)c(O)c(O)c12` [Quercetagetin], in series [1] (setting [21]), the cyst suppression entry was “did not affect cyst suppression”.

With `Nc1ncnc2c1nc(Br)n2[C@@H]1O[C@@H]2COP(=O)(O)O[C@H]2[C@H]1O` [8-Br-cAMP, 8-Bromoadenosine 3′,5′-cyclic monophosphate], in [16], the “cyst formation in CDH1+ distal nephrons” value is recorded as “rarely developed cysts” and the “cyst formation in LTL+ proximal tubules” value is recorded as “formed cystic structures”.

B1: rhCXCL16: recombinant human C—X—C Motif Chemokine Ligand 16 (rhCXCL16) for CXCL16 (protein, UniProt Q9H2A7 30-254, looked up)
C-X-C motif chemokine 16: NEGSVTGSCYCGKRISSDSPPSVQFMNRLRKHLRAYHRCLYYTRFQLLSWSVCGGNKDPWVQELMSCLDLKECGHAYSGIVAHQKHLLPTSPPISQASEGASSDIHTPAQMLLSTLQSTQRPTLPVGSLSSDKELTRPNETTIHTAGHSLAAGPEAGENQKQPEKNAGPTARTSATVPVLCLLAIIFILTAALSYVLCKRRRGQSPQSSPDLPVHYIPVAPDSNT
B1: the cyst suppression result in series [1] (setting [21]) is recorded as “did not affect cyst suppression”.
